Test results from patent EP1484330B1, “Triazole compouds suitable for treating disorders that respond to modulation of the dopamine D3 receptor” (Abbott GmbH & Co. KG, priority 2003, dated 2004).

Tests used:
[1] = Determination of the concentration of compounds in plasma and brain following oral dosing; format: in vivo, Male Sprague-Dawley rats; settings: rats, 10 mg/kg orally by gavage; samples at 0.5, 3 and 8 hours; value Cmax
Protocol: Male Sprague-Dawley rats were used in this study (2 to 4 per experiment). The animals were fasted overnight prior to dosing and throughout the duration of the study but were permitted water ad libitum. Each rat received a 10 mg/kg (5 mL/kg) dose orally by gavage. At 0.5, 3 and 8 hours after drug administration, three animals were put under deep anesthesia using isoflurane and euthanized by bleeding (cardiac puncture) under deep isoflurane anesthesia. EDTA blood samples and brain tissue will be collected from each rat. Upon collection, the samples were promptly placed in an ice bath, and within 2 hours after sample collection, the blood was centrifuged at about 4°C. The resulting brain and plasma samples were placed in clean glass tubes and stored in a freezer until analysis. The plasma samples were assayed for parent compound using appropriate liquid chromatography - mass spectrometry procedures. The results are given in table 2 along with results obtained using the two reference compounds A and B, and illustrate the high brain concentrations attainable with the compounds of the invention.

[2] = target: T1, human dopamine D2L receptors (long isoform) (Homo sapiens, UniProt P14416); experiment: Receptor binding study, displacement of [125I] iodospiperone from HEK-293 cell membranes; settings: 0.01 nM [125I] iodospiperone, HEK-293 membranes, 25°C, 60 minutes, read-out: Ki D2
T1 construct: expressed in transfected cells; membranes used
Protocol: (§1) The substance to be tested was either dissolved in methanol/Chremophor® (BASF-AG) or in dimethyl sulfoxide and then diluted with water to the desired concentration.
(§2) Each assay mixture was run in triplicate.
The incubation buffer contained 50 mM tris, 120 mM NaCl, 5 mM KCl, 2 mM CaCl2, 2 mM MgCl2 and 0.1% bovine serum albumin. The buffer was adjusted to pH 7.4 with HCl.
(§3) After having been incubated at 25°C for 60 minutes, the assay mixtures were filtered through a Wathman GF/B glass fiber filter under vacuum using a cell collecting device. The filters were transferred to scintillation viols using a filter transfer system. After 4 ml of Ultima Gold® (Packard) have been added, the samples were shaken for one hour and the radioactivity was then counted in a Beta-Counter (Packard, Tricarb 2000 or 2200CA). The cpm values were converted into dpm using a standard quench series and the program belonging to the instrument.
(§4) The inhibition curves were analyzed by means of iterative nonlinear regression analysis using the Statistical Analysis System (SAS) which is similar to the "LIGAND" program described by Munson and Rodbard.

[3] = target: T2, human dopamine D3 receptors (Homo sapiens, UniProt P35462); experiment: Receptor binding study, displacement of [125I]-iodosulpride from HEK-293 cell membranes; settings: for Ki: 0.1 nM [125I]-iodosulpride, HEK-293 membranes, 25°C, 60 minutes; for Selectivity [Ki(D2)/Ki(D3)]: ratio Ki(D2)/Ki(D3)
T2 construct: expressed in transfected cells; membranes used
Protocol: as §1, §2
The incubation buffer contained 50 mM tris, 120 mM NaCl, 5 mM KCI, 2 mM CaCl2, 2 mM MgCl2 and 0.1% bovine serum albumin, 10 µM quinolone and 0.1% ascorbic acid (prepared fresh daily). The buffer was adjusted to pH 7.4 with HCl.
as §3, §4

T1 sequence (P14416 whole entry, canonical isoform): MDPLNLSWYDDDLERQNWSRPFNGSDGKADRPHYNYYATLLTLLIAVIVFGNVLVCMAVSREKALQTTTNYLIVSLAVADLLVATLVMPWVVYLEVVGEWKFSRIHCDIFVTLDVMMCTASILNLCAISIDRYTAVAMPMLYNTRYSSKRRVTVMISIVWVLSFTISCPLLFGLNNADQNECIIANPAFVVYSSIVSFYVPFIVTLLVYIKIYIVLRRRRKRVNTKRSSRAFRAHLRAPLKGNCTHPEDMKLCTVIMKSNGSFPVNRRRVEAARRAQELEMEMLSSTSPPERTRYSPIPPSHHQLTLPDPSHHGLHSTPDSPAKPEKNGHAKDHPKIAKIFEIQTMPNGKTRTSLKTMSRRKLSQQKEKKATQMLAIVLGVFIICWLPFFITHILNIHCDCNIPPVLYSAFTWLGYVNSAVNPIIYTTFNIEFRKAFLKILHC
T2 sequence (P35462 whole entry): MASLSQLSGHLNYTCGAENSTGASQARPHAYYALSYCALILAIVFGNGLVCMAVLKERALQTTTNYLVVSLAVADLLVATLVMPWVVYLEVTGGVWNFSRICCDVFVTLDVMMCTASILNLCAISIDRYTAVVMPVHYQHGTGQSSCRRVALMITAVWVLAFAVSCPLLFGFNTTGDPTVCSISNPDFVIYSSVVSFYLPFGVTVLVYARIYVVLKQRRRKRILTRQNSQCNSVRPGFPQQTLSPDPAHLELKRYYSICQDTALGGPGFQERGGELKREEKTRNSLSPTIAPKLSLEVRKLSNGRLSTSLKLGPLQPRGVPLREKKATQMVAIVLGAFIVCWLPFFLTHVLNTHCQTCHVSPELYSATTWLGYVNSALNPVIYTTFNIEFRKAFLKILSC

In the case of Cn1c(N)nnc1SCCCN1CCN(c2cc(C(C)(C)C)nc(C(C)(C)C)n2)CC1 [A*, reference compound], the Brain level [1] is reported as 387 ng/g.
In the case of Cn1c(N)nnc1SCCCN1CCN(c2cc(C(F)(F)F)nc(C(C)(C)C)n2)CC1 [B*, reference compound], the Brain level [1] is reported as 143 ng/g.
Cc1nnc(SCCCN2CCN(c3cc(C(C)(C)C)nc(C(C)(C)C)n3)CC2)n1C.Cl [Example 1, 2-tert-Butyl-4-{4-[3-(4-methyl-5-methyl-4H-[1,2,4]triazol-3-ylsulfanyl)-propyl]-piperazin-1-yl}-6-tert-butyl-pyrimidine hydrochloride] showed a Ki [2] of 176 nM, a Brain level [1] of 559 ng/g and a Ki [3] of 1.1 nM. For the same molecule, the “Selectivity [Ki(D2)/Ki(D3)]” value [3] was 160.
Cl.Cn1cnnc1SCCCN1CCN(c2cc(C(C)(C)C)nc(C(C)(C)C)n2)CC1 [Example 2, 2-tert-Butyl-4-{4-[3-(4-methyl-4H-[1,2,4]triazol-3-ylsulfanyl)-propyl]-piperazin-1-yl}-6-tert-butyl-pyrimidine hydrochloride] gave a Ki [2] of 127 nM, a Brain level [1] of 1835 ng/g and a Ki [3] of 1.7 nM. The “Selectivity [Ki(D2)/Ki(D3)]” value [3] was 75.
For CCCc1cc(N2CCN(CCCSc3nncn3C)CC2)nc(C(C)(C)C)n1.O=C(O)/C=C/C(=O)O [Example 3, 2-tert-Butyl-4-{4-[3-(4-methyl-4H-[1,2,4]triazol-3-ylsulfanyl)-propyl]-piperazin-1-yl}-6-propyl-pyrimidine fumarate], the Ki [2] was 412 nM, the Brain level [1] was 1000 ng/g and the Ki [3] was 3.3 nM. The “Selectivity [Ki(D2)/Ki(D3)]” value [3] was 125.
In the case of CCCc1cc(N2CCN(CCCSc3nnc(C)n3C)CC2)nc(C(C)(C)C)n1.Cl [Example 4, 2-tert-Butyl-4-{4-[3-(4-methyl-5-methyl-4H-[1,2,4]triazol-3-ylsulfanyl)-propyl]-piperazin-1-yl}-6-propyl-pyrimidine hydrochloride], the Ki [2] is reported as 216 nM, the Brain level [1] is reported as 483 ng/g and the Ki [3] is reported as 2.6 nM. For the same molecule, the “Selectivity [Ki(D2)/Ki(D3)]” value [3] was 83.
With Cc1nnc(SCCCN2CCN(c3cc(C(F)(F)F)nc(C(C)(C)C)n3)CC2)n1C.Cl [Example 5, 2-tert-Butyl-4-{4-[3-(4-methyl-5-methyl-4H-[1,2,4]triazol-3-ylsulfanyl)-propyl]-piperazin-1-yl}-6-trifluoromethyl-pyrimidine hydrochloride] the Ki [2] was 311 nM, the Brain level [1] was 904 ng/g and the Ki [3] was 3.7 nM. For the same molecule, the “Selectivity [Ki(D2)/Ki(D3)]” value [3] was 84.
For Cl.Cn1cnnc1SCCCN1CCN(c2cc(C(F)(F)F)nc(C(C)(C)C)n2)CC1 [Example 6, 2-tert-Butyl-4-{4-[3-(4-methyl-4H-[1,2,4]triazol-3-ylsulfanyl)-propyl]-piperazin-1-yl}-6-trifluoromethyl-pyrimidine hydrochloride], the Ki [2] was 469 nM, the Brain level [1] was 2384 ng/g and the Ki [3] was 3.5 nM. The “Selectivity [Ki(D2)/Ki(D3)]” value [3] was 134.
Cl.Cn1cnnc1SCCCN1CCN(c2cc(C(F)F)nc(C(C)(C)C)n2)CC1 [Example 7, 2-tert-Butyl-4-{4-[3-(4-methyl-4H-[1,2,4]triazol-3-ylsulfanyl)-propyl]-piperazin-1-yl}-6-difluoromethyl-pyrimidine hydrochloride] gave a Ki [2] of 418 nM, a Brain level [1] of 1430 ng/g and a Ki [3] of 2.9 nM. For the same molecule, the “Selectivity [Ki(D2)/Ki(D3)]” value [3] was 146.
For Cc1nnc(SCCCN2CCN(c3cc(C(F)F)nc(C(C)(C)C)n3)CC2)n1C.Cl [Example 8, 2-tert-Butyl-4-{4-[3-(4-methyl-5-methyl-4H-[1,2,4]triazol-3-ylsulfanyl)-propyl]-piperazin-1-yl}-6-difluoromethyl-pyrimidine hydrochloride], the Ki [2] was 401 nM, the Ki [3] was 1.8 nM and the “Selectivity [Ki(D2)/Ki(D3)]” value [3] was 224.
